Data published in patent US9585892B2, “Solid forms comprising N-(5-tert-butyl-isoxazol-3-yl)-N′-{4-[7-(2-morpholin-4-yl-ethoxy)imidazo[2,1-b][1,3]benzothiazol-2-yl]phenyl}urea, compositions thereof, and uses therewith” (AMBIT BIOSCIENCES CORPORATION, priority 2007, dated 2017).
Structures can show the parent of a compound that is named as a salt. Where two headings read alike, the source gives them in different places. Blank lines part the entries; values can stand above or below the molecule they belong to.

What was measured:
Format in all cases: physicochemical
[1] = Solubility measurements (solvent aliquot addition, visual inspection)
Protocol: A weighed sample was treated with aliquots of the test solvent at room temperature or elevated temperature. Complete dissolution of the test material was determined by visual inspection. Solubility was estimated based on the total solvent used to provide complete dissolution. The actual solubility may be greater than the value calculated because of the use of solvent aliquots that were too large or due to a slow rate of dissolution. […] If complete dissolution was achieved as a result of only one aliquot addition, the solubility is expressed as “greater than.”

[2] = Stress experiments (temperature or relative humidity, XRPD after stress)
Protocol: Stress Experiments. Solids were stressed under different temperature or relative humidity (RH) environments for a measured time period. Specific RH values were achieved by placing the sample inside sealed chambers containing saturated salt solutions. The salt solutions were selected and prepared following an ASTM standard procedure. Samples were analyzed by XRPD immediately after removal from the stress environment.
(§1) X-ray powder diffraction analyses were performed on an Inel XRG-3000 diffractometer, equipped with a curved position-sensitive detector with a […] of 120°. Real time data was collected using Cu Kα radiation starting at approximately 4 ° 2θ at a resolution of 0.03 ° 2θ. The tube voltage and amperage were set to 40 kV and 30 mA, respectively. […] Samples were prepared for analysis by packing them into thin-walled glass capillaries. Each capillary was mounted onto a goniometer head that is motorized to permit spinning of the capillary during data acquisition. Instrument calibration was performed daily using a silicon reference standard.

[3] = Dynamic vapor sorption/desorption (moisture balance); details: for post-moisture balance XRPD (resulting material): after sorption/desorption cycle 5-95-5% RH; for weight loss upon initial equilibration: equilibrium at 5% RH; for weight gain on sorption / water corresponding to the weight gain on sorption: from 5 to 95% RH; for weight loss on desorption: from 95 to 5% RH
Protocol: Data were collected on a VTI SGA-100 moisture balance system. For sorption isotherms, a sorption range of about 5 to about 95% relative humidity (RH) and a desorption range of about 95 to about 5% RH in 10% RH increments were used for analysis. The samples were not dried prior to analysis. Equilibrium criteria used for analysis were less than 0.0100% weight change in 5 minutes with a maximum equilibration time of 3 hours if the weight criterion was not met. Data were not corrected for the initial moisture content of the samples.

[4] = Mechanical stress studies (compression, grinding, milling; XRPD after stress)
Protocol: Grinding. […] […] The solids were isolated and analyzed.
as §1

[5] = Oven: 40° C., 4 days, listed as A
[6] = 75% RH, ambient temperature, 2 and 4 days

- solubility ([1]; 1,4-dioxane, organic solvent or mixture, thermodynamic from solid, 1,4-Dioxane, Ambient, read-out: Approximate Solubility): < 2000 µg/mL
- solubility ([1]; 2-butanone, organic solvent or mixture, thermodynamic from solid, 2-Butanone, Ambient, read-out: Approximate Solubility): < 2000 µg/mL
- solubility ([1]; acetone, organic solvent or mixture, thermodynamic from solid, Acetone, Ambient, read-out: Approximate Solubility): < 2000 µg/mL
- solubility ([1]; acetonitrile, organic solvent or mixture, thermodynamic from solid, Acetonitrile (ACN), Ambient, read-out: Approximate Solubility): < 2000 µg/mL
- solubility ([1]; acetonitrile/water (1:1), 60 °C, aqueous with cosolvent or surfactant or cyclodextrin, thermodynamic from solid, ACN/water (1:1), 60° C., read-out: Approximate Solubility): ≥ 110000 µg/mL
- solubility ([1]; dichloromethane, organic solvent or mixture, thermodynamic from solid, Dichloromethane (DCM), Ambient, read-out: Approximate Solubility): < 2000 µg/mL
- solubility ([1]; ethanol, organic solvent or mixture, thermodynamic from solid, Ethanol (EtOH), Ambient, read-out: Approximate Solubility): 1000 µg/mL
- solubility ([1]; ethanol/water (4:1), 60 °C, organic solvent or mixture, thermodynamic from solid, Ethanol/water (4:1), 60° C., read-out: Approximate Solubility): ≥ 39000 µg/mL
- solubility ([1]; ethanol/water (24:1), 60 °C, organic solvent or mixture, thermodynamic from solid, Ethanol/water (24:1), 60° C., read-out: Approximate Solubility): < 2000 µg/mL
- solubility ([1]; ethyl acetate, organic solvent or mixture, thermodynamic from solid, Ethyl Acetate (EtOAc), Ambient, read-out: Approximate Solubility): < 2000 µg/mL
- solubility ([1]; isopropanol, organic solvent or mixture, thermodynamic from solid, Isopropanol (IPA), Ambient, read-out: Approximate Solubility): < 2000 µg/mL
- solubility ([1]; isopropanol/water (24:1), 60 °C, organic solvent or mixture, thermodynamic from solid, Isopropanol/water (24:1), 60° C., read-out: Approximate Solubility): < 2000 µg/mL
- solubility ([1]; methanol, organic solvent or mixture, thermodynamic from solid, Methanol (MeOH), Ambient, read-out: Approximate Solubility): 3000 µg/mL
- solubility ([1]; nitromethane, organic solvent or mixture, thermodynamic from solid, Nitromethane, Ambient, read-out: Approximate Solubility): < 2000 µg/mL
- solubility ([1]; tetrahydrofuran, organic solvent or mixture, thermodynamic from solid, Tetrahydrofuran (THF), Ambient, read-out: Approximate Solubility): < 2000 µg/mL
- solubility ([1]; trifluoroethanol, organic solvent or mixture, thermodynamic from solid, Trifluoroethanol (TFE), Ambient, read-out: Approximate Solubility): > 72000 µg/mL
- solubility ([1]; trifluorotoluene, organic solvent or mixture, thermodynamic from solid, Trifluorotoluene (TFT), Ambient, read-out: Approximate Solubility): < 2000 µg/mL
- solubility ([1]; water, thermodynamic from solid, Water, Ambient, certain samples formed a gel upon addition of water, actual solubility may differ substantially, read-out: Approximate Solubility): 36000 µg/mL
- weight gain ([2]; 75% RH, 1 day): 1 day: 4.2% weight gain
- weight gain ([2]; 75% RH, 2 days): 2 days: 3.8% weight gain
- XRPD Result after stress ([2]; 75% RH, ambient temperature, 4 days): Form D
- XRPD Result after stress ([2]; Oven: 40° C., 4 days): mixture of Form A and Form E
- XRPD Result after stress [2, 5]: A + E
- weight loss [2, 5]: 4 days: 3.0% weight loss
- post-moisture balance XRPD (resulting material) [3]: Form D
- post-moisture balance XRPD (resulting material) ([3]; listed as A): FORM D
- weight loss upon initial equilibration [3]: about 3.9%
- weight loss upon initial equilibration ([3]; listed as A): ~3.9% WEIGHT LOSS UPON EQUILIBRIUM
- weight gain on sorption [3]: about 16.7%
- water corresponding to the weight gain on sorption ([3]; listed as A): CORRESPONDING TO 6.5 MOLES OF WATER.
- weight gain on sorption ([3]; listed as A): ~16.7% WEIGHT GAIN FROM 5 TO 95% RH,
- weight loss on desorption [3]: about 16.7%
- weight loss on desorption ([3]; listed as A): ~16.6% WEIGHT LOSS FROM 95 TO 5% RH.
Structure (SMILES): CC(C)(C)c1cc(NC(=O)Nc2ccc(-c3cn4c(n3)sc3cc(OCCN5CCOCC5)ccc34)cc2)no1 [Form A of the HCl salt of Compound B1, N-(5-tert-butyl-isoxazol-3-yl)-N′-{4-[7-(2-morpholin-4-yl-ethoxy)imidazo[2,1-b][1,3]benzothiazol-2-yl]phenyl}urea]

- APPROXIMATE SOLUBILITY ([1]; 2,2,2-TRIFLUOROETHANOL, 67 ° C.): 53 mg/mL
- APPROXIMATE SOLUBILITY ([1]; 2,2,2-TRIFLUOROETHANOL, AMBIENT): 52 mg/mL
- APPROXIMATE SOLUBILITY ([1]; 2-BUTANONE (MEK), 62 ° C.): <1 mg/mL
- APPROXIMATE SOLUBILITY ([1]; 2-BUTANONE (MEK), AMBIENT): <1 mg/mL
- APPROXIMATE SOLUBILITY ([1]; ACETONE, 54 ° C.): <1 mg/mL
- APPROXIMATE SOLUBILITY ([1]; ACETONE, AMBIENT): <1 mg/mL
- APPROXIMATE SOLUBILITY ([1]; ACETONE:WATER 50:50, AMBIENT): 13 mg/mL
- APPROXIMATE SOLUBILITY ([1]; ACETONITRILE, 60 ° C.): <1 mg/mL
- APPROXIMATE SOLUBILITY ([1]; ACETONITRILE, AMBIENT): <1 mg/mL
- APPROXIMATE SOLUBILITY ([1]; ACETONITRILE:WATER 50:50, AMBIENT): 51 mg/mL
- APPROXIMATE SOLUBILITY ([1]; DICHLOROMETHANE, AMBIENT): <1 mg/mL
- APPROXIMATE SOLUBILITY ([1]; DIOXANE:WATER 50:50, 62 ° C.): 23 mg/mL
- APPROXIMATE SOLUBILITY ([1]; ETHANOL, 60 ° C.): <2 mg/mL
- APPROXIMATE SOLUBILITY ([1]; ETHANOL, AMBIENT): <1 mg/mL
- APPROXIMATE SOLUBILITY ([1]; ETHANOL:WATER 50:50, AMBIENT): 13 mg/mL
- APPROXIMATE SOLUBILITY ([1]; ETHYL ACETATE, AMBIENT): <1 mg/mL
- APPROXIMATE SOLUBILITY ([1]; ISOPROPANOL, 63 ° C.): <1 mg/mL
- APPROXIMATE SOLUBILITY ([1]; ISOPROPANOL, AMBIENT): <1 mg/mL
- APPROXIMATE SOLUBILITY ([1]; ISOPROPANOL:WATER 20:80, 62 ° C.): 54 mg/mL
- APPROXIMATE SOLUBILITY ([1]; ISOPROPANOL:WATER 20:80, AMBIENT): 5 mg/mL
- APPROXIMATE SOLUBILITY ([1]; METHANOL, 62 ° C.): 2 mg/mL
- APPROXIMATE SOLUBILITY ([1]; METHANOL, AMBIENT): 1 mg/mL
- APPROXIMATE SOLUBILITY ([1]; NITROMETHANE, 64 ° C.): <1 mg/mL
- APPROXIMATE SOLUBILITY ([1]; NITROMETHANE, AMBIENT): <1 mg/mL
- APPROXIMATE SOLUBILITY ([1]; P-DIOXANE, 63 ° C.): <1 mg/mL
- APPROXIMATE SOLUBILITY ([1]; P-DIOXANE, AMBIENT): <1 mg/mL
- APPROXIMATE SOLUBILITY ([1]; P-DIOXANE:WATER 50:50, AMBIENT): 6 mg/mL
- APPROXIMATE SOLUBILITY ([1]; TETRAHYDROFURAN, 64 ° C.): <1 mg/mL
- APPROXIMATE SOLUBILITY ([1]; TETRAHYDROFURAN, AMBIENT): <1 mg/mL
- APPROXIMATE SOLUBILITY ([1]; TETRAHYDROFURAN:WATER 50:50, AMBIENT): 24 mg/mL
- APPROXIMATE SOLUBILITY ([1]; TRIFLUOROTOLUENE, AMBIENT): <1 mg/mL
- solubility ([1]; water, 68 °C, water, thermodynamic from solid, WATER, 68 ° C., read-out: APPROXIMATE SOLUBILITY): < 3000 µg/mL
- solubility ([1]; water, thermodynamic from solid, WATER, AMBIENT, read-out: APPROXIMATE SOLUBILITY): ≥ 1000 µg/mL
- XRPD Result after stress [2, 6]: Form B
- weight change [2, 6]: no substantial weight change
- weight change ([2]; 75% RH, ambient temperature, 2 and 4 days, listed as B): 2 and 4 days: no weight
- XRPD RESULT after mechanical stress ([4]; GRIND WITH MORTAR AND PESTLE, WATER, 1 MIN): B + SMALL PEAK
- XRPD RESULT after mechanical stress ([4]; MILLING, 2,2,2-TRIFLUOROETHANOL, 10 MIN): B + LARGE PEAK
- post-moisture balance XRPD (resulting material) [3]: Form B
- post-moisture balance XRPD (resulting material) ([3]; listed as B): FORM B
- weight loss upon initial equilibration [3]: about 0.6%
- water corresponding to the mass gain on sorption ([3]; from 5% to 95% RH): about 1.2 molar equivalents of water
- weight gain on sorption [3]: about 3.6%
- water corresponding to the weight gain on sorption ([3]; listed as B): ~1.2 MOLES OF WATER FROM ~5 TO ~95%
- weight gain on sorption ([3]; listed as B): ~3.6% WEIGHT GAIN, CORRESPONDING TO
- weight loss on desorption [3]: about 3.6%
- weight loss on desorption ([3]; listed as B): RH, ~3.2% WEIGHT LOSS FROM ~95 TO ~5%
Structure (SMILES): CC(C)(C)c1cc(NC(=O)Nc2ccc(-c3cn4c(n3)sc3cc(OCCN5CCOCC5)ccc34)cc2)no1 [Form B of the HCl salt of Compound B1, N-(5-tert-butyl-isoxazol-3-yl)-N′-{4-[7-(2-morpholin-4-yl-ethoxy)imidazo[2,1-b][1,3]benzothiazol-2-yl]phenyl}urea]
